Measurements reported in paper PMC10449848, “Structural basis of lipid-droplet localization of 17-beta-hydroxysteroid dehydrogenase 13” (Nature Communications, 2023).
Values joined by “and” are separate entries in the source; they are usually repeats but may differ in a detail not shown here. Identical values can stand only once.

Columns and labels:
human HSD17B11 = target: T1, human HSD17B11 (Homo sapiens, UniProt Q8NBQ5); assay: Thermal shift assay (static light scattering, Tagg), human HSD17B11; type: binding; settings: Fig. 6d, 500 μM NAD+
T1 construct: human HSD17B11 (residues 2-300, NP_057329.3); 10x His (N); TEV protease site (N); made in house; host or cells: Sf9 (baculovirus)
T1 sequence (Q8NBQ5 2-300): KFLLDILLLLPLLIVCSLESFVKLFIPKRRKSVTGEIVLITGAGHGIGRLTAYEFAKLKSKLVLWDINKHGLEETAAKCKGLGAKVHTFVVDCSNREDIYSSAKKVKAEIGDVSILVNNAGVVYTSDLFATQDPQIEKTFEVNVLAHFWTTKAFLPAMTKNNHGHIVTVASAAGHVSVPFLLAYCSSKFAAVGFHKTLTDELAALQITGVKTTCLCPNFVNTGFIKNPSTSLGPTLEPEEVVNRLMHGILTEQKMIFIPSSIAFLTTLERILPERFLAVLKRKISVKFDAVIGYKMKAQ
Description: Because of the low enzymatic activities of dog wild-type HSD17B13 (Fig. 6a) and HSD17B11 with β-estradiol, it was difficult to measure compound inhibition of these proteins in a biochemical assay and we instead utilized direct binding methods to compare compounds interaction with different proteins. To understand ligand binding, we tested several approaches such as surface plasmon resonance and isothermal calorimetry. Like many membrane/detergent-associated proteins, however, these methods were not amenable for HSD17B13. We next turned to thermal shift assays (TSA) for comparing ligand binding affinities. TSA measures the changes in the thermal denaturation temperature of a protein under different conditions such as the presence compound, changes in buffer conditions, or sequence mutations. There are various readouts including intrinsic fluorescence or light scattering signals. We chose the static light scattering methods to detect the temperatures at which our proteins start to aggregate (Tagg), which are more suitable for membrane proteins that require detergent micelles for stability. Given that in theory[51] and in practice Tagg continues to increase with concentration of ligands far above their IC50s, we used high cofactor and inhibitor concentrations in the TSA experiments to maximize the ligand binding signal.
(§1) TSA studies were run on the UNit instrument (Unchained Labs, CA, USA). Experiments were run in either 25 mM sodium phosphate pH 7, 150 mM NaCl, 10% glycerol, 1 mM TCEP, 0.05% DDM, + different cofactors (NAD^+, NADH, NADP, NADPH; MilliporeSigma) or 25 mM HEPES pH 7.2, 300 mM NaCl, 0.5 mM TCEP, 0.05% DDM, 10% glycerol, ±500 µM NAD^+, and ±100 µM compound 1 (from 2 mM DMSO stock) or DMSO or 50 mM Hepes pH 7.5, 300 mM NaCl, 0.5 mM TCEP, 0.05% DDM, 500 µM NAD^+, ± 50 µM compounds (from 2 mM stock) or DMSO. Protein aggregation was measured by static light scattering at 266 and 473 nm with a 1 °C/sec ramp rate from 20-80 °C. The data was processed using the UNcle software (Unchained Labs, CA, USA), and temperatures at which the protein started aggregation were recorded as Tagg. Reported Tagg and analysis were based on measurements at 266 nm unless otherwise indicated. The protein concentration used was 10.4 μM.

[1] = target: human mutant HSD17B13 (Q60K/I62R/R71H/E161K) (human) (UniProt Q7Z5P4); assay: crystal structure; human mutant HSD17B13 with 1 mM NAD+, 1 mM compound 2 and 0.5% β-octyl-glucoside; 25% PEG3350, 0.1 M Bis-Tris pH 5.5, 0.2 M Li2SO4; room temperature
human HSD17B13 = target: T2, human HSD17B13 (Homo sapiens, UniProt Q7Z5P4); assay: Thermal shift assay (static light scattering, Tagg), human HSD17B13; type: binding; settings: Fig. 6c; 500 μM NAD+ alone, no compound
T2 construct: human HSD17B13 (residues 2-300, NP_835236.2); 10x His (N); TEV protease site (N); made in house; host or cells: Sf9 (baculovirus)
T2 sequence (Q7Z5P4 2-300): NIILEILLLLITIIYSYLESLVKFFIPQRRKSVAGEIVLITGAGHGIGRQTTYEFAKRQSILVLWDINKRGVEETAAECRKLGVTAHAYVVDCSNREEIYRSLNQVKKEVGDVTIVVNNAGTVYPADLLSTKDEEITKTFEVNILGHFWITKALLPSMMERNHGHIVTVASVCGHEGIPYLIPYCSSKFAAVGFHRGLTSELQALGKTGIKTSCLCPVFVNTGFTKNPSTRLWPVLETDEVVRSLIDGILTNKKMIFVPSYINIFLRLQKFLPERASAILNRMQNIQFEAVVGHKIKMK
Description: To understand ligand binding, we tested several approaches such as surface plasmon resonance and isothermal calorimetry. […] We next turned to thermal shift assays (TSA) for comparing ligand binding affinities. TSA measures the changes in the thermal denaturation temperature of a protein under different conditions such as the presence compound, changes in buffer conditions, or sequence mutations. There are various readouts including intrinsic fluorescence or light scattering signals. We chose the static light scattering methods to detect the temperatures at which our proteins start to aggregate (Tagg), which are more suitable for membrane proteins that require detergent micelles for stability.
as §1, with “indicated.” for “indicated. The protein concentration used was 10.4 μM.”

[2] = target: the molecule itself; assay: crystal structure; dog HSD17B13 at 12 mg/ml with 1 mM NAD+, 1 mM compound 1 and 0.125% β-octyl-glucoside; 30% PEG3350, 0.2 M ammonium chloride; room temperature; apo crystals by soaking with buffer containing NAD+ only

Cc1ccc(S(=O)(=O)c2cc(C)cc(S(=O)(=O)Nc3ccc(C(=O)O)cc3)c2C)cc1 [Compound 2]
effect on protein stability in TSA (human HSD17B11): neither 1 nor 2 showed an effect on protein stability | Tagg (human HSD17B11; 50 µM compound): 40.37 °C and 38.02 °C and 40.65 °C and 41.03 °C and 39.22 °C and 40.82 °C and 39.77 °C and 38.1 °C

human mutant HSD17B13 (Q60K/I62R/R71H/E161K) (from UniProt Q7Z5P4-1 20-300) (enzyme)
stoichiometry N [1]: 2

NC(=O)c1ccc[n+]([C@@H]2O[C@H](COP(=O)([O-])OP(=O)(O)OC[C@H]3O[C@@H](n4cnc5c(N)ncnc54)[C@H](O)[C@@H]3O)[C@@H](O)[C@H]2O)c1 [NAD, nicotinamide adenine dinucleotide]
Tagg, individual measurements (human HSD17B13): 43.6 °C (2×) and 38.9 °C and 40.5 °C and 42 °C and 41.7 °C (2×) and 41 °C

B1: dog wild-type HSD17B13 (hydroxysteroid 17-beta-dehydrogenase 13) (enzyme, UniProt A0A8C0PP93 1-300, looked up)
chain: MNIILDLLLLLLTIIYSYLEALVKVFFPRKRKSVAGEIVLITGAGHGIGRWTAYEFAKQKSRLVLWDINKHGVEETAAECRKLGATVHTFVVDCGNREDIYNSVKQVKKEVGDVTILVNNAGTVYPADLLSTKDEEITKTFEINILGHFWITKALLPSMIKRNHGHIVTVASVCGHGVIPYLIPYCSSKFAAVGFHRALTLELQTLGITGIKTSCLCPVFVNTGFTKNPSTRLWPILETDTVARSLIDGILTNKKMIFVPSYYNIYLILDKFLPERALAAINHLQNIQFEAVIGHKTRMK
notes: HSD17B13, dog, AA1-300 of XP_038300006.1; Crystallised with NAD+ and compound 1; the apo (NAD+ only) crystals were made by soaking compound 1 out; It is held in two of the entries PDB 8G84, 8G89, 8G93 and 8G9V; also called Dog WT; dog WT HSD17B13; source: Sf9 (baculovirus), solubilised from membranes with C12E8, purified (NiNTA, SEC)
stoichiometry N [2]: 2

B2: dog mutant HSD17B13 (G177E/V178G/T205A/I293V) (enzyme, UniProt A0A8C0PP93 1-300, looked up)
chain: MNIILDLLLLLLTIIYSYLEALVKVFFPRKRKSVAGEIVLITGAGHGIGRWTAYEFAKQKSRLVLWDINKHGVEETAAECRKLGATVHTFVVDCGNREDIYNSVKQVKKEVGDVTILVNNAGTVYPADLLSTKDEEITKTFEINILGHFWITKALLPSMIKRNHGHIVTVASVCGHEGIPYLIPYCSSKFAAVGFHRALTLELQALGITGIKTSCLCPVFVNTGFTKNPSTRLWPILETDTVARSLIDGILTNKKMIFVPSYYNIYLILDKFLPERALAAINHLQNIQFEAVVGHKTRMK
notes: HSD17B13, dog, AA1-300 of XP_038300006.1, with four residues at the compound 1 site changed to the human ones; It is held in one of the entries PDB 8G84, 8G89, 8G93 and 8G9V; also called dog quadruple mutant; mutated dog HSD17B13; source: Sf9 (baculovirus), solubilised from membranes with C12E8, purified (NiNTA, SEC)
stoichiometry N [2]: 2
